# Measurements published in patent publication US10308939B2, “Use of an miRNA to reduce proliferation of a cancer cell” (Board of Supervisors of Louisiana State University and …, priority 2014, dated 2019).
# How the values were obtained:
# Assay type in all cases: cell-based, human
# GDF15 mRNA [1] = experiment: qRT-PCR of GDF15 expression in drug-treated LN-229 cells
# Procedure: (§1) Quantitative RT-PCR: Total RNA was isolated using the miRVana miRNA extraction kit (Ambion, Austin, Tex., USA). RNA was reverse transcribed using the High Capacity cDNA Reverse Transcription kit for mRNAs or TaqMan assays for microRNAs (Applied Biosystems, Carlsbad, Calif.). Quantitative real-time PCR was performed in duplicate using a Roche LightCycler 480 Real-Time PCR System (Indianapolis, Ind., USA). Each sample was normalized using GAPDH or RNU6B control (ΔCt) and relative quantification of gene expression was calculated using the comparative Ct (2^−ΔΔCt) method, as described in (Eletto et al., (2008) J. Cell. Physiol. 216: 764-770; Pacifici et al., (2013) J. Cell. Physiol. 228: 1070-1075; Rom et al., (2010) FASEB J. 24: 2292-2300 incorporated herein by reference in their entireties). For the clinical samples relative quantification was represented as 1/ΔCt to maintain real differences in Ct values between samples.
# To further analyze the effects of fenofibrate on this gene, the human glioblastoma cell lines, LN-229 and U87MG were exposed to 50 μM fenofibrate and monitored the expression of GDF15 at 24 and 48 h time points. […] Following the treatment, total RNA was extracted and subjected to quantitative real-time PCR (qRT-PCR) using GDF15-specific and GAPDH-specific primers. The results in FIG. 6A show a 60- and 35-fold up-regulation of GDF15 gene expression in the two cell lines.
# miR-3189-3p = experiment: qRT-PCR of miR-3189-3p expression in drug-treated LN-229 cells; settings: for miR-3189-3p relative expression compared to untreated cells: LN-229, 48 h (FIG. 6E)
# Procedure: as §1
# SF3B2 mRNA = experiment: qRT-PCR of SF3B2 mRNA in transfected LN-229 and U87MG cells; settings: co-expressed with miR-3189-3p
# Procedure: as §1
# LN-229 cells = experiment: Rescue from fenofibrate-induced cell death; settings: LN-229 cells treated with fenofibrate
# p63RhoGEF 3′UTR = experiment: Dual luciferase assay, psiCHECK2/p63RhoGEF 3′UTR in LN-229 cells; settings: co-transfected with miR-3189-3p mimic
# Text: (§2) Cloning for microRNA Functional Analysis: The genomic sequence corresponding to the 3′UTR of p63RhoGEF was PCR amplified from LN-229 cells. This PCR product was ligated into the multiple cloning sites downstream of the Renilla luciferase reporter gene in the psiCHECK-2 vector (Promega, Madison, Wis.). This vector also contains a firefly luciferase reporter sequence, which allows for normalization of transfection efficiency. The primers used were: forward, 5′-[…] (SEQ ID NO: 7), containing the XhoI restriction site (underlined) and reverse, 5′-[…] (SEQ ID NO: 8), containing the NotI restriction site (underlined). The genomic sequence corresponding to the 3′UTR of SF3B2 was also cloned into the psiCHECK-2 vector. The primers used were: forward, 5′-[…] (SEQ ID NO: 9), containing the XhoI restriction site (underlined) and reverse, 5′-[…] (SEQ ID NO: 10) containing the NotI restriction site (underlined).
# (§3) The oligonucleotides for the mutagenesis of p63RhoGEF sites were as follows: site 1 forward, 5′-[…] (SEQ ID NO: 11), site 2 forward, 5′-[…] (SEQ ID NO: 12), and site 3 forward, 5′-[…] (SEQ ID NO: 13). […]
# (§4) After 24 h, cells were harvested and lysates were assayed for luciferase activity with the Dual-Luciferase Reporter Assay System (Promega) using a Synergy 2 microplate reader (BioTek Instruments, Inc., Winooski, Vt.). […]
# SF3B2 3′UTR = experiment: Dual luciferase assay, psiCHECK2/SF3B2 3′UTR in LN-229 cells; settings: co-transfected with miR-3189-3p mimic
# Text: as §2, §3, §4
# E2F-1 = experiment: Western blot of E2F-1 protein in LN-229 cells; settings: co-transfected with miR-3189-3p
# Procedure: (§5) Western Blot Analysis: Cells were collected by gently scraping in the presence of PBS (Gibco, Life Technologies), followed by centrifugation and disruption of the cell pellet in lysis buffer (50 mM HEPES, pH 7.5, 150 mM NaCl, 1.5 mM MgCl2, 1 mM EGTA, pH 8.4, 10% glycerol, 1% Triton X-100, 1 mM PMSF, 1 mM sodium orthovanadate (NA3VO4), Phosphatase and Protease Inhibitor Cocktails (Sigma). Whole-cell lysates (30 to 70 μg) were separated on a 4-15% SDS-PAGE gel (Bio-Rad, Hercules, Calif.). GDF15 and E2F-1 antibodies were purchased from Cell Signaling Technology (Beverly, Mass.). The antibody to detect p63RhoGEF was obtained from GeneTex (Irvine, Calif.). GDF15 antibody was purchased from R&D Systems (Minneapolis, Minn.), and anti-GRB2 was from BD Transduction Laboratories (San Jose, Calif.). SF3B2 and 14-3-3ζ antibodies were obtained from Santa Cruz Biotechnology.
# p63RhoGEF mRNA = experiment: qRT-PCR of p63RhoGEF mRNA in transfected LN-229 and U87MG cells; settings: co-expressed with miR-3189-3p
# Procedure: as §1
# LN-229 and U87MG cells = experiment: Cell proliferation assay (MTS)
# Procedure: For transfection experiments, cells were seeded at a density of 4×10^5 cells/60 mm dish or 2.5×10^4 cells/well in 12-well plates, and transfected using Lipofectamine 2000 (Life Technologies, Grand Island, N.Y.) per manufacturer's instructions. SF3B2 and p63RhoGEF siRNAs and controls were purchased from Santa Cruz (Santa Cruz, Calif.), and were used at the final concentration of 10 nM. Human PPARα siRNA was the ON-TARGET plus SMART pool from Thermo Scientific Dharmacon (Lafayette, Colo.), and it was used at the final concentration of 100 nM. The PPARα […] WY146,43 was from Cayman Chemical (St. Louis, Mo.). For the transient transfection experiments, cells were seeded at a density of 4×10^5 cells/60 mm dish or 2.5×10^4 cells/well in 12-well plates, and transfected using Lipofectamine 2000 reagent (Life Technologies) per manufacturer's instructions.
# At 72 h after transfection, cells were incubated with medium containing 3-(4,5-dimethylthiazol-2-yl)-5-(3-carboxymethoxyphenyl)-2-(4-sulfophenyl)-2H-tetrazolium (MTS) reagent (Promega) diluted according to manufacturer's instructions. Cells were then incubated at 37° C. for 30-60 min and absorbance was measured at a wavelength of 490 nm using a Bio-Rad Benchmark Plus microplate reader.
# miR-3189-5p = experiment: qRT-PCR of miR-3189-5p expression in fenofibrate-treated LN-229 and U87MG cells; settings: fenofibrate treatment, 48 h
# Procedure: as §1
# Ago2 immunocomplexes = experiment: RNA-binding protein immunoprecipitation (RIP) with Ago2 antibody; settings: extracts from FF-treated LN-229 cells
# Procedure: RNA-Binding Protein Immunoprecipitation (RIP): RIP assay was performed using Argonaute 2 (Ago2) antibody from Millipore (RIPAb+Ago2 RIP). This kit included negative control mouse IgG antibody and control primers specific for human FOS, which were utilized for the optimization of Ago2-IP in the cellular model. The RIP Ago-IP was performed essentially as previously described (Curtale et al., (2013) Proc. Nat. Acad. Sci. U.S.A. 110: 11499-11504). In brief, 10×10^6 LN-229 cells were used for Ago2-IP and for the IgG isotype control; 2×10^6 cells were used for the extraction of total RNA and for total protein lysates. The cell monolayer was washed twice with cold PBS, and lysed in 500 μl of Lysis Buffer (150 mM KCl, 25 mM Tris-HCl pH 7.4, 5 mM EDTA, 0.5% NP40, 5 mM DTT) supplemented with 10 mM Protease Inhibitor Cocktail, 10 mM PMSF, 10 mM Phosphatase Inhibitor, 10 mM Na3VO4 and 100 U/ml RNase Inhibitor (Applied Biosystems). After 30 min of incubation on ice, lysates were centrifuged for 30 min at 14,000 rpm at 4° C. in a microcentrifuge. 30 μL of Protein A/G Magnetic Beads (Pierce, Thermo Scientific, Waltham, Mass.) were washed three times with Blocking Solution (0.5% BSA dissolved in DPBS+/+) and incubated for 1 h at 4° C. with 5 μg of anti-Ago2 mouse monoclonal IgG1κ or with isotype IgG1κ control antibodies (Millipore). The immunocomplexes were washed three times with Blocking Solution. […]
# GDF15 [2] = experiment: Western blot of GDF15 protein in fenofibrate-treated LN-229 cells; settings: LN-229, fenofibrate treatment
# Procedure: as §5
# GDF15 [3] = experiment: ELISA of secreted mature GDF15 in LN-229 culture medium; settings: LN-229, 48 h following treatment
# Procedure: ELISA Assay: Mature GDF15 was detected in the cell culture medium using the GDF15 Quantikine ELISA kit from R&D Systems (Minneapolis, Minn.), according to the manufacturer's instructions. Sample absorbance was measured at 450 nm using a Bio-Rad Benchmark Plus microplate reader.
# GDF15 mRNA [4] = experiment: qRT-PCR of GDF15 expression in fenofibrate-treated U87MG cells; settings: 50 μM, 24 and 48 h time points
# Procedure: as §1
# To further analyze the effects of fenofibrate on this gene, the human glioblastoma cell lines, LN-229 and U87MG were exposed to 50 μM fenofibrate and monitored the expression of GDF15 at 24 and 48 h time points. […] Following the treatment, total RNA was extracted and subjected to quantitative real-time PCR (qRT-PCR) using GDF15-specific and GAPDH-specific primers. […]
# [5] = 48 h after treatment/transfection, with fenofibrate
compound,measurement,setting,value
"Cc1cccc(Nc2cc(Cl)nc(SCC(=O)O)n2)c1C [WY146,43]",impact on GDF15 levels triggered by fenofibrate,GDF15 mRNA [1]; [5],no significant impact
same,impact on miR-3189-3p levels triggered by fenofibrate,miR-3189-3p; [5],no significant impact
"anti-miR-3189-3p: miR-3189-3p mirVana miRNA inhibitor (SEQ ID NO: 22) purchased from Life Technologies (UGCCCCAUCUGUGCCCUGGGUAGGA; listed as RNA, chemistry not given here)",effect on miR-3189-3p downregulation of SF3B2 transcript,SF3B2 mRNA,counteracted
same,rescue from fenofibrate-induced cell death,LN-229 cells,did not rescue
same,effect on miR-3189-3p inhibition of p63RhoGEF 3′UTR reporter,p63RhoGEF 3′UTR,efficiently reverted
same,effect on miR-3189-3p inhibition of SF3B2 3′UTR reporter,SF3B2 3′UTR,almost completely alleviated
same,effect on miR-3189-3p down-regulation of E2F-1,E2F-1,reversed
same,effect on miR-3189-3p downregulation of p63RhoGEF transcript,p63RhoGEF mRNA,counteracted
same,changes in proliferation and cell cycle on co-transfection with miR-3189-3p,LN-229 and U87MG cells; co-transfected with miR-3189-3p,No significant changes
CC(=O)O[C@H]1C(=O)[C@@]2(C)[C@H]([C@H](OC(=O)c3ccccc3)[C@]3(O)C[C@H](OC(=O)[C@H](O)[C@@H](NC(=O)c4ccccc4)c4ccccc4)C(C)=C1C3(C)C)[C@]1(OC(C)=O)CO[C@@H]1C[C@@H]2O [paclitaxel],miR-3189-3p relative expression compared to untreated cells,miR-3189-3p,only in fenofibrate treated cells
"CC(C)OC(=O)C(C)(C)Oc1ccc(C(=O)c2ccc(Cl)cc2)cc1 [fenofibrate, propan-2-yl 2-{4-[(4-chlorophenyl)carbonyl]phenoxy}-2-methylpropanoate]",up-regulation of GDF15 gene expression,"GDF15 mRNA [1]; 50 μM, 24 and 48 h time points, LN-229",60 fold
same,GDF15 mRNA up-regulation relative to untreated cells,"GDF15 mRNA [1]; LN-229, 48 h, comparison with doxorubicin and paclitaxel (FIG. 6E)",more than 60 folds
same,miR-3189-3p relative expression compared to untreated cells,miR-3189-3p,4.8 fold
same,expression of miR-3189-5p,miR-3189-5p,did not change
same,overexpression of miR-3189-3p linked to Ago2 immunocomplexes compared to untreated cells,Ago2 immunocomplexes,~35 fold
same,GDF15 protein content,GDF15 [2],large increase
same,secreted GDF15,GDF15 [3],significant levels
same,up-regulation of GDF15 gene expression,GDF15 mRNA [4],35 fold
COc1cccc2c1C(=O)c1c(O)c3c(c(O)c1C2=O)C[C@@](O)(C(=O)CO)C[C@@H]3O[C@H]1C[C@H](N)[C@H](O)[C@H](C)O1 [doxorubicin],miR-3189-3p relative expression compared to untreated cells,miR-3189-3p,only in fenofibrate treated cells
"miR-3189-5p: mature microRNA of 25 nucleotides from the miR-3189 stem-loop (SEQ ID NO: 21) (GUUGCCCCAUCUGUGCCCUGGGUAGGA; listed as RNA, chemistry not fully specified)","changes in cell morphology, cell proliferation and migration",LN-229 and U87MG cells; transfection of LN-229 and U87MG cells,"did not elicit changes in cell morphology, nor inhibited cell proliferation and migration"
